Consider twelve molecules from patent US20070142392A1, “Uses of rifamycins” (ActivBiotics, Inc., priority 2005, published 2007).

In brackets after ≈: the same amount, converted by molar mass.

As a reminder, the MBC is the smallest concentration meeting the test's criterion for killing. Read a low MBC as greater bactericidal potency. As usually defined, the Tmax is the time at which the peak concentration occurs.

In data set [1] the test system is S. aureus. Kind of data set: minimal bactericidal concentration in the stationary growth phase (MBCstat). The data set is classed as cell-based. The conditions noted are these: Staphylococcus aureus, 1% glucose PBS pH 7.4 with 4% Muller Hinton Broth. On the procedure: FIG. 2A is a schematic illustration showing the peak drug concentration of Compound 86 (1.13 μg/ml) in cage fluid from non-infected animals after single dose of 12.5 mg/kg. […] In this medium, bacterial counts remained stable in the absence of antibacterial agents for >36 hours.
In this medium, bacterial counts remained stable in the absence of antibacterial agents for >36 hours.
The minimal bactericidal concentration in the stationary growth phase (MBCstat) was determined by using overnight bacterial cultures which were centrifuged and resuspended in medium containing 1% glucose supplemented phosphate buffered saline (PBS) pH 7.4 with 4% Muller Hinton Broth (Zimmerli et al., J Antimicrob. Chemother. 33:959-967 (1994)). In this medium, bacterial counts remained stable in the absence of antibacterial agents for >36 hours.

Another data set can be described thus: in vivo. To be noted: albino, guinea pig, ip, 5 mg/kg.
For a further data set, the system named is H. flu. It is filed as cell-based.
Another data set relates to C. trachomatis. As to the kind of experiment: MIC values, C. trachomatis (Table 2). The data set is classed as cell-based.
Another data set relates to E. faecalis. As to the kind of experiment: MIC values, E. faecalis (Tables 1-4). The conditions noted are these: for MIC F. faecalis: Table 2. It is filed as cell-based.
Data set [2] deals with S. aureus. Kind of data set: MIC values, S. aureus (Tables 1-4). The data set is classed as cell-based.
For another data set, the system named is S. pneumo. Kind of data set: MIC values, S. pneumo. (Tables 1-4). The data set is classed as cell-based.
For the next data set, the system named is E. coli. As to the kind of experiment: MIC values, E. coli (Tables 1-4). It is filed as cell-based.

From the text for in vivo: For pharmacokinetic studies, non-infected animals were used. […] Teflon tissue cages were implanted into the flanks of guinea pigs. For pharmacokinetic studies, non-infected animals were used.

Take `C[C@H]1COc2c(N3CCN(C)CC3)c(F)cc3c(=O)c(C(=O)O)cn1c23` [Levofloxacin, levofloxacin]: the MBC with S. aureus [1] is 40000 ng/mL (≈ 111000 nM). For the same molecule, in the data set “in vivo”, the Tmax is 2 h and the concentration at 12 h stood at 10 ± 10 ng/mL.
Regarding `CO[C@H]1/C=C/O[C@@]2(C)Oc3c(C)c(O)c4c(=O)c(c5oc6c7c(cc(O)c6nc-5c4c3C2=O)N(C)CCCN7C)NC(=O)/C(C)=C\C=C\[C@H](C)[C@H](O)[C@@H](C)[C@@H](O)[C@@H](C)[C@H](O)[C@@H]1C` [Compound 83], in the data set on H. flu, the “MIC H. flu” value worked out at 2000 ng/mL (≈ 2330 nM). Further, the “MIC C. trachomatis” value in the data set on C. trachomatis came out at 1 ng/mL (≈ 1.17 nM). Moreover, the “MIC F. faecalis” value in the data set on E. faecalis was determined as 1000 ng/mL (≈ 1170 nM). Also, the “MIC S. aureus” value against S. aureus [2] was found to be 120 ng/mL (≈ 140 nM). The “MIC S. pneumo.” value in the data set on S. pneumo. came to 0.12 ng/mL (≈ 0.14 nM). For the same molecule, the “MIC E. coli” value in the data set with E. coli was greater than 8000 ng/mL.
For the molecule `CO[C@H]1/C=C/O[C@@]2(C)Oc3c(C)c(O)c4c(=O)c(c5oc6c7c(cc(O)c6nc-5c4c3C2=O)N(C(C)C)CCN7C(C)C)NC(=O)/C(C)=C\C=C\[C@H](C)[C@H](O)[C@@H](C)[C@@H](O)[C@@H](C)[C@H](OC(C)=O)[C@@H]1C` [Compound 84], the “MIC H. flu” value in the data set on H. flu was 2000 ng/mL (≈ 2130 nM). For the same molecule, the “MIC C. trachomatis” value with C. trachomatis stood at 10 ng/mL (≈ 10.6 nM). In the data set with E. faecalis, the “MIC F. faecalis” value is 4000 ng/mL (≈ 4250 nM). The “MIC S. aureus” value against S. aureus [2] came out at 60 ng/mL (≈ 63.8 nM). The “MIC S. pneumo.” value in the data set with S. pneumo. came to 8 ng/mL (≈ 8.5 nM). Further, in the data set on E. coli, the “MIC E. coli” value is greater than 8000 ng/mL.
Take `CO[C@H]1/C=C/O[C@@]2(C)Oc3c(C)c(O)c4c(=O)c(c5oc6c7c(cc(O)c6nc-5c4c3C2=O)N(C)CCCN7C)NC(=O)/C(C)=C\C=C\[C@H](C)[C@H](O)[C@@H](C)[C@@H](O)[C@@H](C)[C@H](OC(C)=O)[C@@H]1C` [Compound 82]: the “MIC H. flu” value in the data set on H. flu turned out to be 2000 ng/mL (≈ 2220 nM). For the same molecule, the “MIC C. trachomatis” value in the data set with C. trachomatis was 0.064 ng/mL (≈ 0.0712 nM). For the same molecule, the “MIC F. faecalis” value in the data set with E. faecalis came out at 4000 ng/mL (≈ 4450 nM). The “MIC S. aureus” value in the data set with S. aureus [2] amounted to 60 ng/mL (≈ 66.7 nM). Further, the “MIC S. pneumo.” value in the data set on S. pneumo. is 8 ng/mL (≈ 8.9 nM). In addition, in the data set on E. coli, the “MIC E. coli” value is greater than 8000 ng/mL.
On to `CO[C@H]1/C=C/O[C@@]2(C)Oc3c(C)c(O)c4c(=O)c(c5oc6cc(N7CC(N(C)C)C7)cc(O)c6nc-5c4c3C2=O)NC(=O)/C(C)=C\C=C\[C@H](C)[C@H](O)[C@@H](C)[C@@H](O)[C@@H](C)[C@H](OC(C)=O)[C@@H]1C` [Compound 152], for which the MBC against S. aureus [1] was found to be 469 ng/mL (≈ 522 nM).
For `CO[C@H]1/C=C/O[C@@]2(C)Oc3c(C)c(O)c4c(=O)c(c5oc6c7c(cc(O)c6nc-5c4c3C2=O)N(C)CCN7C)NC(=O)/C(C)=C\C=C\[C@H](C)[C@H](O)[C@@H](C)[C@@H](O)[C@@H](C)[C@H](O)[C@@H]1C` [Compound 81], the “MIC H. flu” value against H. flu is 2000 ng/mL (≈ 2370 nM). Also, the “MIC C. trachomatis” value in the data set with C. trachomatis turned out to be 1 ng/mL (≈ 1.19 nM). Also, in the data set on E. faecalis, the “MIC F. faecalis” value was determined as 1000 ng/mL (≈ 1190 nM). In addition, in the data set with S. aureus [2], the “MIC S. aureus” value was determined as 500 ng/mL (≈ 593 nM). Moreover, in the data set on S. pneumo., the “MIC S. pneumo.” value worked out at 60 ng/mL (≈ 71.2 nM). The “MIC E. coli” value with E. coli was found to be 8000 ng/mL (≈ 9490 nM).
For `CO[C@H]1/C=C/O[C@@]2(C)Oc3c(C)c(O)c4c(=O)c(c5oc6c7c(cc(O)c6nc-5c4c3C2=O)N(C)CCN7C)NC(=O)/C(C)=C\C=C\[C@H](C)[C@H](O)[C@@H](C)[C@@H](O)[C@@H](C)[C@H](OC(C)=O)[C@@H]1C` [Compound 80], in the data set on H. flu, the “MIC H. flu” value worked out at 1000 ng/mL (≈ 1130 nM). Moreover, the “MIC C. trachomatis” value against C. trachomatis turned out to be 0.064 ng/mL (≈ 0.0723 nM). The “MIC F. faecalis” value against E. faecalis was found to be 1000 ng/mL (≈ 1130 nM). Further, the “MIC S. aureus” value against S. aureus [2] turned out to be 8 ng/mL (≈ 9.04 nM). Moreover, the “MIC S. pneumo.” value in the data set on S. pneumo. is 0.12 ng/mL (≈ 0.136 nM). For the same molecule, the “MIC E. coli” value in the data set on E. coli was 8000 ng/mL (≈ 9040 nM).
Consider `CO[C@H]1/C=C/O[C@@]2(C)Oc3c(C)c(O)c4c(=O)c(c5oc6cc(N7CC8CCC(C7)N8C)cc(O)c6nc-5c4c3C2=O)NC(=O)/C(C)=C\C=C\[C@H](C)[C@H](O)[C@@H](C)[C@@H](O)[C@@H](C)[C@H](OC(C)=O)[C@@H]1C` [Compound 151], for which the minimum bactericidal concentration (MBC) against S. aureus [1] is 156 ng/mL (≈ 169 nM).
In the case of `CO[C@H]1/C=C/O[C@@]2(C)Oc3c(C)c(O)c4c(=O)c(c5oc6c(C)c(N7CCC7)cc(C)c6nc-5c4c3C2=O)NC(=O)/C(C)=C\C=C\[C@H](C)[C@H](O)[C@@H](C)[C@@H](O)[C@@H](C)[C@H](O)[C@@H]1C` [Compound 126], the “MIC H. flu” value in the data set on H. flu turned out to be 250 ng/mL (≈ 303 nM). Moreover, the “MIC E. faecalis” value in the data set on E. faecalis turned out to be 1000 ng/mL (≈ 1210 nM). Moreover, in the data set on S. aureus [2], the “MIC S. aureus” value amounted to 30 ng/mL (≈ 36.3 nM). Further, the “MIC S. pneumo.” value against S. pneumo. came out at 4 ng/mL (≈ 4.84 nM). In addition, the “MIC E. coli” value with E. coli came out at 8000 ng/mL (≈ 9690 nM).
With `COC1C=COC2(C)Oc3c(C)c(O)c4c(=O)c(c5sc6cc(N7CC(C)N(CC8CC8)CC7C)ccc6nc-5c4c3C2=O)NC(=O)C(C)=CC=CC(C)C(O)C(C)C(O)C(C)C(OC(C)=O)C1C` (stereo not shown) [Compound 68], in the data set with H. flu, the “MIC H. flu” value stood at 500 ng/mL (≈ 517 nM). Further, the “MIC E. faecalis” value with E. faecalis was 2000 ng/mL (≈ 2070 nM). Moreover, the “MIC S. aureus” value with S. aureus [2] came out at 60 ng/mL (≈ 62 nM). Moreover, the “MIC S. pneumo.” value with S. pneumo. came to 0.5 ng/mL (≈ 0.517 nM). Further, the “MIC E. coli” value with E. coli was greater than 8000 ng/mL.
For `CO[C@H]1/C=C/O[C@@]2(C)Oc3c(C)c(O)c4c(=O)c(c5oc6cc(N7CCC(CNC(C)=O)CC7)cc(O)c6nc-5c4c3C2=O)NC(=O)/C(C)=C\C=C\[C@H](C)[C@H](O)[C@@H](C)[C@@H](O)[C@@H](C)[C@H](OC(C)=O)[C@@H]1C` [Compound 55] the same measures were 500 ng/mL (≈ 524 nM), 1000 ng/mL (≈ 1050 nM), 8 ng/mL (≈ 8.38 nM), 0.25 ng/mL (≈ 0.262 nM) and 8000 ng/mL (≈ 8380 nM).
For `CO[C@H]1/C=C/O[C@@]2(C)Oc3c(C)c(O)c4c(=O)c(c5oc6cc(N7CC8CCC(C7)N8)cc(O)c6nc-5c4c3C2=O)NC(=O)/C(C)=C\C=C\[C@H](C)[C@H](O)[C@@H](C)[C@@H](O)[C@@H](C)[C@H](OC(C)=O)[C@@H]1C` [Compound 10] the same measures were 2000 ng/mL (≈ 2200 nM), 1000 ng/mL (≈ 1100 nM), 8 ng/mL (≈ 8.78 nM), 0.12 ng/mL (≈ 0.132 nM) and greater than 8000 ng/mL.
